The text below walks through data of patent US20240316144A1, “PHARMACEUTICAL COMPOSITION AND METHOD FOR INHIBITING ANGIOGENESIS” (ZIH YUAN TANG Biotechnology Co, Ltd., priority 2023, published 2024).

Test [1] deals with retinal sublayer structure. The test can be described thus: SD-OCT damage score of the retinal sublayer structure after laser injury in mice, vitreous injection. Type of test: in vivo, C57BL/6 mice. To be noted: for SD-OCT quantified values, difference to other groups: p<0.01 (FIG. 3D). The protocol:
(§1) Beauvericin (BEA), named GYT088 in this trail, was supplied by Shiyuantang Biotechnology Co. 5 mg of BEA (molecular weight 783.96) was dissolved in DMSO at a stock concentration of 50 mM, and then diluted to 100 μM with saline. Before injection, the sample was diluted to 1.6, 3.2, and 6.4 μM in saline, and then administered to the low, medium, and high-dose groups, which were equivalent to 1.28, 2.56, and 5.12 ng/eye, respectively, based on a vitreous volume of 4 μl in mice (wherein the injection volume is 1 μl); converted to the human doses of 1.28, 2.56, 5.12 μg/eye as the low, medium and high dose levels, respectively, based on a vitreous volume of 4-4.5 ml in human.
(§2) Male C57BL/6 mice from BioLASCO Taiwan CO., Ltd. at 7-8 weeks of age, with an average body weight of 17-20 g, were used in this study. The mice were housed in the Animal Room of the National Taipei Medical University for more than 5 days before the start of the experiment. The incubation temperature was set at 23±1° C., the humidity was set at 39˜43%, and the automated light control system maintained 12 hours of light and 12 hours of darkness. The feed was Rodent diet 5001 (Purina, MO, USA) and drinking water was supplied indefinitely.
(§3) After the adaptation period, the retina was cauterized with laser light (day 0), and the degree of retinal damage was confirmed by fundus photography (FP), fluorescein fundus angiography (FFA), and frequency-domain optical […] (SD-OCT) on the same day (FIG. 1). The mice were randomly divided into five groups and given vitreous injections of the corresponding drugs, including (1) control group, (2) positive control group: Eylea (40 μg/eye/μL), (3-5) GYT088 treatment groups at low-dose (1.28 ng/eye), medium-dose (2.56 ng/eye), and high-dose ([…]). Five mice in each group were clinically observed daily, and retinal injury repair was examined at Day 7 and Day 14.
The OCT (Phoenix Research Laboratories, San Ramon, CA) imaging system used in this experiment is based on the principle of frequency-domain optical homodyne tomography. The computerized tomography (CT) scan was divided into three layers: the first layer was from the nerve fiber layer (NFL) to the inner nuclear layer (INL), the second layer was from the INL to the inner segment/outer segment (IS/OS), and the third layer was from the IS/OS to the retinal pigment epithelium (RPE). The damage was scored according to the retinal sublayer structure in a double-blind trail, and the mean value of the scores was taken as the index value of the damage after each score was made by 3 persons.

For test [2], the system named is laser-induced angiogenesis. The test can be described thus: Fundus fluorescein angiography (FFA) of laser-induced choroidal neovascularization in mice, vitreous injection. Type of test: in vivo, C57BL/6 mice. To be noted: for angiogenesis index (relative average fluorescence leakage ratio vs Day 0): vitreous injection, mean±S.E.M.; for FFA quantified values, difference to other groups: Eylea 40 μg/eye/μL, p<0.01 (FIG. 2D). The method, then:
as §1, §2, §3
Mice were deeply anesthetized and pupils were dilated. A Micron III retinal imaging microscope (Phoenix, San Ramon, CA, USA) was used to adjust the focal length, and the central socket of the mice was placed in the center of the fundus lens to capture fundus photography (FP), and then 10% sodium fluorescein solution was injected intraperitoneally, and retinal angiography was performed with a 520 nm filter to capture continuous images for analysis. After the administration of drugs, the FP, FFA, and SD-OCT results were observed once a week at Day 0 and recorded until Day 14. Sharp images were selected for analysis and imported into […] using ImageJ, and the software automatically quantified the pixel value and area of the fundus region by removing the background values. Due to differences in individual retinal structures, post-laser wound healing varies and overexposure of signals in the area may occur. If fluorescence leakage occurs outside of the location of direct laser damage, it is considered to be a phenomenon of fundus neovascularization. Therefore, the quantification was performed by randomly selecting three fixed areas of the fluorescence leakage area that were not laser-damaged areas.

Take `CC(C)[C@H]1OC(=O)[C@H](Cc2ccccc2)N(C)C(=O)[C@@H](C(C)C)OC(=O)[C@H](Cc2ccccc2)N(C)C(=O)[C@@H](C(C)C)OC(=O)[C@H](Cc2ccccc2)N(C)C1=O` [GYT088, beauvericin]: the “damage score compared with control group” value in test [1] (Day 14, high-dose 5.12 ng/eye, vitreous injection) is “significantly lower than control group”. For the same molecule, the “SD-OCT quantified values, difference to other groups” value in test [1] (Day 14, low-dose 1.28 ng/eye) is listed as “significant difference”; in test [1] (Day 14, mid-dose 2.56 ng/eye), “significant difference”. In addition, the “angiogenesis index (relative average fluorescence leakage ratio vs Day 0)” value in test [2] (Day 7, high-dose 5.12 ng/eye, p<0.05) is listed as 1.53±0.17 times; in test [2] (Day 7, low-dose 1.28 ng/eye), 1.92±0.21 times; in test [2] (Day 7, medium-dose 2.56 ng/eye), 1.59±0.22 times; in test [2] (Day 14, high-dose 5.12 ng/eye, p<0.01), 1.63±0.16 times; in test [2] (Day 14, low-dose 1.28 ng/eye), 2.46±0.18 times; in test [2] (Day 14, medium-dose 2.56 ng/eye, p<0.01) it was 1.79±0.17 times.
Turning to “Eylea: positive control group: Eylea (40 μg/eye/μL), vitreous injection [reference compound]”, the “damage score (scale 0-4)” value in test [1] (Day 7, Eylea 40 μg/eye/μL, vitreous injection, control 1.38±0.17) is listed as 0.80±0.13. For the same molecule, in test [1] (Day 14, Eylea 40 μg/eye/μL), the “SD-OCT quantified values, difference to other groups” value is on record as “significant difference”. The “FFA quantified values, difference to other groups” value in test [2] (Day 7) and in test [2] (Day 14) was “significant difference” throughout.
